The test system of assay [1] is mouse mammary carcinoma (EMT6/CTX). In words: Suppression of subcutaneous EMT6/CTX tumor growth in mice (tumor size). Type of assay: in vivo, mice of the CB6F1 strain. Particulars: 28 days from tumor cell inoculation; i.p.; levamisole 12 mg/Kg, cimetidine 20 mg/Kg; vs control. How it is done:
In the following exemplary embodiments of the present invention, different pharmaceutical compositions of the invention were tested in vivo for the purpose of suppression of tumor growth in mice. The control group received a vehicle containing only non-active ingredients which was compared to groups which received pharmaceutical compositions comprising different active ingredients as described in detail below. 3.5×10^5 cells of mouse mammary carcinoma (EMT6/CTX) were injected subcutaneously in to 7-8 week-old mice of the CB6F1 strain (a cross between Balbc and C57bl), in the center of their backs. The mice were then marked and divided into groups. Typically, each group consisted of 7 to 8 mice. The tumor size was measured twice a week and plotted in a graph. […] The width measurement was also used as an indication for tumor height, and the 0.52 is a normalizing factor. Mice were injected with a specified pharmaceutical composition, 6 days a week. Injection volume was 0.05 mL per 10 g body weight (25 g mice received 0.125 mL). All injections were performed intraperitoneally. The week was divided into two treatment types, cytotoxic treatment and non-cytotoxic treatment days according to the corresponding composition. […] 98% of final solution volume was measured and 2% solutol (liquid) was added. […] 98% of final solution volume was measured and 2% solutol (liquid) was added. […]

The test system of assay [2] is tumor growth. Particulars: Example 4 of U.S. Patent Application 20030158118; cited from earlier work.
In assay [3] the test system is tumor growth. Particulars: Experiments 3 and 4 (FIGS. 3 and 4) in WO03/061566; cited from earlier work.

“Also recorded” adds a separate entry of the source.

We go through three compounds from patent US7838513B2, “Anti-cancer therapy comprising an H2-blocker, at least one antiinflammatory agent and a cytotoxic agent” (Tiltan Pharma Ltd., priority 2006, dated 2010).

`CN/C(=N/CCSCc1nc[nH]c1C)NC#N` [cimetidine]: the “Effect on tumor growth (tumor size), Example 2, FIG. 2” value in assay [1] was “neither levamisole (Group 2), nor cimetidine (Group 3), nor their combination (Group 4) had any significant effect on tumor growth; also recorded: did not result in any significant effect on tumor growth; also recorded: neither the H2-blocker (cimetidine) alone, nor levamisole alone demonstrated any significant anti-cancer activity”. The “Inhibition of tumor growth by Cimetidine by itself” value in assay [2] was “did not inhibit tumor growth to any significant amount”.

On to `O=P1(N(CCCl)CCCl)NCCCO1` (stereo not shown) [cyclophosphamide], for which the “Effect of cyclophosphamide alone on tumor growth” value in assay [3] is “very moderate effect”.

As for `c1ccc([C@H]2CN3CCSC3=N2)cc1` [levamisole], the “Effect on tumor growth (tumor size), Example 2, FIG. 2” value in assay [1] is reported as “neither levamisole (Group 2), nor cimetidine (Group 3), nor their combination (Group 4) had any significant effect on tumor growth; also recorded: neither the H2-blocker (cimetidine) alone, nor levamisole alone demonstrated any significant anti-cancer activity”.
